The nature of assay [1]: Inhibitory concentration against Protein farnesyltransferase of Trypanosoma cruzi.
The test system of another assay is Trypanosoma cruzi. Briefly: Inhibition of Trypanosoma cruzi growth. The assay is classed as functional. The note with it: read-out: ED50 (the source's name).

pEC50, pIC50: −log10 of the molar value.

One may read the pIC50 as the negative decadic logarithm of the IC50, by convention in mol/L. The low end stands for a large IC50, the high end for a small IC50. `Cn1cncc1[C@@](N)(c1ccc(Cl)cc1)c1ccc2c(c1)c(-c1cccc(Cl)c1)cc(=O)n2C` [TIPIFARNIB] gave a pIC50 in assay [1] of around 7.12. Moreover, in the assay on Trypanosoma cruzi, the pEC50 is 8.40.

The values above are taken from ChEMBL document CHEMBL1141155, “The protein farnesyltransferase inhibitor Tipifarnib as a new lead for the development of drugs against Chagas disease” (J Med Chem, 2005).
